In ChEMBL document CHEMBL3352415, “Synthesis and biological evaluation of novel thiadiazole amides as potent Cdc25B and PTP1B inhibitors” (Bioorg Med Chem Lett, 2014):

Key:
[1] = target: T1, M-phase inducer phosphatase 2 (Homo sapiens) (UniProt P30305); test: Inhibition of Cdc25B (unknown origin) at 5 ug/ml
T1 sequence (whole entry): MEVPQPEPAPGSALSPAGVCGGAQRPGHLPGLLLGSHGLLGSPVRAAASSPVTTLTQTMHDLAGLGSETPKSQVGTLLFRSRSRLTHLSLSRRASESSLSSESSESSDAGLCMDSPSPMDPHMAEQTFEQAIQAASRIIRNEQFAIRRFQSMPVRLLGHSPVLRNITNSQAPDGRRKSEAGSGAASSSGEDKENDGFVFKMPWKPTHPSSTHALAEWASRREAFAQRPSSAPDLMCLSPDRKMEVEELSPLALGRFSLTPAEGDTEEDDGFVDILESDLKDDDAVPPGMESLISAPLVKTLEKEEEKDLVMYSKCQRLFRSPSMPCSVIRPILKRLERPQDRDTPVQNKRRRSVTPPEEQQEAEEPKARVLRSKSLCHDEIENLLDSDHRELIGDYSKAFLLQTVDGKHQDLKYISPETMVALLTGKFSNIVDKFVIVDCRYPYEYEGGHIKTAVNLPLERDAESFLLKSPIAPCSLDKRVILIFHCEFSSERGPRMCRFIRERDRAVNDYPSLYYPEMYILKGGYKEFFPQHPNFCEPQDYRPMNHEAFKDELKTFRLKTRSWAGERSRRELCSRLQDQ

[2] = target: T2, Tyrosine-protein phosphatase non-receptor type 1 (Homo sapiens) (UniProt P18031); test: Inhibition of PTP1B (unknown origin) at 5 ug/ml
T2 sequence (whole entry): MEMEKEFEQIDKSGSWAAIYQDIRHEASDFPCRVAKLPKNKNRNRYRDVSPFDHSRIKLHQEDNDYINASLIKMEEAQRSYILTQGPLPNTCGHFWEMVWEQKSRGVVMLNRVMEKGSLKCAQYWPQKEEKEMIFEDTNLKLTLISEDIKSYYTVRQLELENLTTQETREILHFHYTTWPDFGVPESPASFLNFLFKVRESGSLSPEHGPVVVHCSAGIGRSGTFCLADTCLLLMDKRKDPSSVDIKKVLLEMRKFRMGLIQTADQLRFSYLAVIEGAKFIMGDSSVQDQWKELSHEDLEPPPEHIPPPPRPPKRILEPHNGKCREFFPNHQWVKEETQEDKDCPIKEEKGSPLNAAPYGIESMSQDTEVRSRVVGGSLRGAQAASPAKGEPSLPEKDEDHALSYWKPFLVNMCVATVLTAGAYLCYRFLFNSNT

[3] = target: T3, Tyrosine-protein phosphatase non-receptor type 2 (Homo sapiens, UniProt P17706); test: Inhibition of TCPTP (unknown origin)
T3 sequence (P17706 whole entry): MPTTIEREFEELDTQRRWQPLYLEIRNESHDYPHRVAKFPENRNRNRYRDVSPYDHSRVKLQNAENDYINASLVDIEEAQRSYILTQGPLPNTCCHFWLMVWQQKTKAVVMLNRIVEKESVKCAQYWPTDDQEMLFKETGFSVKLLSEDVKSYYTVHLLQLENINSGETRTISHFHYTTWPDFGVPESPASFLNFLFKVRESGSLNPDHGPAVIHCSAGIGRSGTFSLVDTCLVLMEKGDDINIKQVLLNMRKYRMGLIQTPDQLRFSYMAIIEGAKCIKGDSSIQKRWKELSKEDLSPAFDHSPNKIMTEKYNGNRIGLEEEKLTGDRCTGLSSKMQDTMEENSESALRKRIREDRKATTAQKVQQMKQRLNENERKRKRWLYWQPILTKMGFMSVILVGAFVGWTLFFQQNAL

[4] = target: Tyrosine-protein phosphatase non-receptor type 6 (Homo sapiens, UniProt P29350); test: Inhibition of SHP1 (unknown origin)
Chain of Tyrosine-protein phosphatase non-receptor type 6 (P29350 whole entry): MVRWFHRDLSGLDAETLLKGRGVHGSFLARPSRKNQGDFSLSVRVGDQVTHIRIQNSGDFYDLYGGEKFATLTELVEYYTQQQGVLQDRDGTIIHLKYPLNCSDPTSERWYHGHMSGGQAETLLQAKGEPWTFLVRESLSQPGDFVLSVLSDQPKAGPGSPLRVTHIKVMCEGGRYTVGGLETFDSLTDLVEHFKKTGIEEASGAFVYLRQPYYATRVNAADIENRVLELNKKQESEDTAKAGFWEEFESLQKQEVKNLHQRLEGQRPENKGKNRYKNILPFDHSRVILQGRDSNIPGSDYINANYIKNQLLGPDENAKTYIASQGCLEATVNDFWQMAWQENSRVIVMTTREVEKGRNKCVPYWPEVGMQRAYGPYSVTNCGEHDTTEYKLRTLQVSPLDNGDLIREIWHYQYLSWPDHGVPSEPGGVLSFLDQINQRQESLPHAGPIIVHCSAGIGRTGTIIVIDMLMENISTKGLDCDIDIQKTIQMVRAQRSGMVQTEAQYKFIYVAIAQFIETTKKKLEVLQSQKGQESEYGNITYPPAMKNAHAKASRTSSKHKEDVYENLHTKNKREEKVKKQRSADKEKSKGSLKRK

[5] = target: T4, Tyrosine-protein phosphatase non-receptor type 11 (Homo sapiens, UniProt Q06124); test: Inhibition of SHP2 (unknown origin)
T4 sequence (Q06124 whole entry): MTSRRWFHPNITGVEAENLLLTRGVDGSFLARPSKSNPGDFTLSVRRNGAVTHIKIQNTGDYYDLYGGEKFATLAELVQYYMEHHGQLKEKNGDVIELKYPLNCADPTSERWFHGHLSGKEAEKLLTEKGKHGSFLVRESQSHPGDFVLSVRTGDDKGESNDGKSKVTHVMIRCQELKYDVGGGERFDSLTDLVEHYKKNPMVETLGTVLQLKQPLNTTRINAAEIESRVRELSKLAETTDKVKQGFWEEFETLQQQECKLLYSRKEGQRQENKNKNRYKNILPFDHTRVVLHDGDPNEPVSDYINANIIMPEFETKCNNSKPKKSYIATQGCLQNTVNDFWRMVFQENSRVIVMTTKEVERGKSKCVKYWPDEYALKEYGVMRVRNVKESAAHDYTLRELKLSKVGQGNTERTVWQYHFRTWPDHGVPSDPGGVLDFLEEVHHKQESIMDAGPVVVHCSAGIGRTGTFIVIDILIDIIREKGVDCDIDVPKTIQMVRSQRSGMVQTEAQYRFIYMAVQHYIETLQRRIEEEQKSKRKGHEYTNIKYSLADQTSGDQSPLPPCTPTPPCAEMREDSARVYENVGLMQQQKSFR

[6] = target: Receptor-type tyrosine-protein phosphatase F (Homo sapiens, UniProt P10586); test: Inhibition of LAR (unknown origin)
Chain of Receptor-type tyrosine-protein phosphatase F (P10586 whole entry): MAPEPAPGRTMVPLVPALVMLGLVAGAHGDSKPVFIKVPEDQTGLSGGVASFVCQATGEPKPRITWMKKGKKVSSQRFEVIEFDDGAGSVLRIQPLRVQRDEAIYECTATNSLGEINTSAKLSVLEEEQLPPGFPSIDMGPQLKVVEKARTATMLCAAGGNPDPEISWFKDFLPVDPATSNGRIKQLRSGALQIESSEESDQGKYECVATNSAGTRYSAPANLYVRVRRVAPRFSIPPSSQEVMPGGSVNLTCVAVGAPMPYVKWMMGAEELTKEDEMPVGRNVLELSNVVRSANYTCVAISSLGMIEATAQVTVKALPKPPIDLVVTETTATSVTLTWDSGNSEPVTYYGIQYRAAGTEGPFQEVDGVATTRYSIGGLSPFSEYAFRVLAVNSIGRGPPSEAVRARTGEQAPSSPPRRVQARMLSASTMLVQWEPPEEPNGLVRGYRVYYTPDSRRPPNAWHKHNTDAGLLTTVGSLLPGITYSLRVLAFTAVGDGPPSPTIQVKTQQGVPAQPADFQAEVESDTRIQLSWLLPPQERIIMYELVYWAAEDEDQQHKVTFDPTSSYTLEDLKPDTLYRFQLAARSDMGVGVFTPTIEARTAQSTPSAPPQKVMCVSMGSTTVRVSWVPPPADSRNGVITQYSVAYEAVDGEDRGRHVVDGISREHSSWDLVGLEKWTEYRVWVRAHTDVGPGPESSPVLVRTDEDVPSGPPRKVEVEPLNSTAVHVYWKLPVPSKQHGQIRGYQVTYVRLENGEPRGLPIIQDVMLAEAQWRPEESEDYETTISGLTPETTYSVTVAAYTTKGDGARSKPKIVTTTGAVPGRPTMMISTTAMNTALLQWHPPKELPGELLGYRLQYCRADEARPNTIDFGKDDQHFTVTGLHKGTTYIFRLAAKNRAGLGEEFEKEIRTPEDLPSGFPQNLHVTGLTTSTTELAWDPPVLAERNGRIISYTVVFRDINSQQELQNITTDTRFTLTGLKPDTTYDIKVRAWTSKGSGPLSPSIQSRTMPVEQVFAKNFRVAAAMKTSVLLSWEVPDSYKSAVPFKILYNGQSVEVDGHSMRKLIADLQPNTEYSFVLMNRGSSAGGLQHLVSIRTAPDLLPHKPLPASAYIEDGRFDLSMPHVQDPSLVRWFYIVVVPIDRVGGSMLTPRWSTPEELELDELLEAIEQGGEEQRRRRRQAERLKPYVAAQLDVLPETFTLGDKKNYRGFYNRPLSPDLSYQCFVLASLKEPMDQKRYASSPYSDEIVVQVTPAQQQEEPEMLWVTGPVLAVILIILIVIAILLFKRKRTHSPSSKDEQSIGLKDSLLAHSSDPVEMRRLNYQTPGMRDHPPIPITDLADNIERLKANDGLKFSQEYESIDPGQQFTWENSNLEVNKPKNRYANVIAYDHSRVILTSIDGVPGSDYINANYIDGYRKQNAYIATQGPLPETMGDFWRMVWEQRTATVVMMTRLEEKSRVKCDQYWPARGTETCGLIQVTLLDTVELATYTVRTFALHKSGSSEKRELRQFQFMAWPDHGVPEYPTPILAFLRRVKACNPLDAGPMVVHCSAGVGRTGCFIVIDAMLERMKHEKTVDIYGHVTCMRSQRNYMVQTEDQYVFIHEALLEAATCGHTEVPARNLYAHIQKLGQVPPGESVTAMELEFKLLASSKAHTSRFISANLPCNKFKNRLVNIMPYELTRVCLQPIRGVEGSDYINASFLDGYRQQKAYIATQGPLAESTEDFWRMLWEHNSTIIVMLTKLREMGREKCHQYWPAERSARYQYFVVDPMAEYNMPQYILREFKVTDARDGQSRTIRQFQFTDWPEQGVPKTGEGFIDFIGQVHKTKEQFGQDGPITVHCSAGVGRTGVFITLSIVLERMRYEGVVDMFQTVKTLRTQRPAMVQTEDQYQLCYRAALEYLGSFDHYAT

[7] = target: T5, Tyrosine-protein phosphatase non-receptor type 1 (Homo sapiens, UniProt P18031); test: Inhibition of PTP1B (unknown origin)
T5 sequence (P18031 whole entry): T2 sequence (whole entry)

[8] = target: T6, M-phase inducer phosphatase 2 (Homo sapiens, UniProt P30305); test: Inhibition of Cdc25B (unknown origin)
T6 sequence (P30305 whole entry): T1 sequence (whole entry)

O=C(Nc1nnc(-c2ccc(Oc3ccc([N+](=O)[O-])cc3)cc2)s1)c1ccccc1Cl
inhibition [1]: 46.4% | inhibition [2]: 63% | IC50 [3]: Not Active | IC50 [4]: Not Active | IC50 [5]: Not Active | IC50 [6]: Not Active | IC50 [7]: 13.8 µM

COc1ccccc1C(=O)Nc1nnc(-c2ccc(Oc3ccc([N+](=O)[O-])cc3)cc2)s1
inhibition [1]: 26.1% | inhibition [2]: 84.8% | IC50 [3]: Not Active | IC50 [4]: Not Active | IC50 [5]: Not Active | IC50 [6]: Not Active | IC50 [7]: 13.1 µM

O=C(Nc1nnc(-c2ccc(Oc3ccc([N+](=O)[O-])cc3)cc2)s1)c1cccc([N+](=O)[O-])c1
inhibition [1]: 24.2% | inhibition [2]: 94.6% | IC50 [3]: Not Active | IC50 [4]: Not Active | IC50 [5]: Not Active | IC50 [6]: Not Active | IC50 [7]: 1.83 µM

O=C(Nc1nnc(-c2ccc(Oc3ccc([N+](=O)[O-])cc3)cc2)s1)c1ccc(F)cc1
inhibition [1]: 31.7% | inhibition [2]: 77.1% | IC50 [3]: Not Active | IC50 [4]: Not Active | IC50 [5]: Not Active | IC50 [6]: Not Active | IC50 [7]: 20 µM

O=C(Nc1nnc(-c2ccc(Oc3ccc([N+](=O)[O-])cc3[N+](=O)[O-])cc2)s1)c1cccc(Cl)c1
inhibition [1]: 37% | inhibition [2]: 80.7% | IC50 [3]: Not Active | IC50 [4]: Not Active | IC50 [5]: Not Active | IC50 [6]: Not Active | IC50 [7]: 6.71 µM

COc1cccc(C(=O)Nc2nnc(-c3ccc(Oc4ccc([N+](=O)[O-])cc4)cc3)s2)c1
inhibition [1]: 2.52% | inhibition [2]: 32.1% | IC50 [3]: Not Active | IC50 [4]: Not Active | IC50 [5]: Not Active | IC50 [6]: Not Active

SODIUM ORTHOVANAD
IC50 [4]: 15.9 µg/mL | IC50 [5]: 24.1 µg/mL

Cc1ccc(C(=O)Nc2nnc(-c3ccc(Oc4ccc([N+](=O)[O-])cc4)cc3)s2)cc1
inhibition [1]: 25.8% | inhibition [2]: 68.4% | IC50 [3]: Not Active | IC50 [4]: Not Active | IC50 [5]: Not Active | IC50 [6]: Not Active | IC50 [7]: 19.1 µM

O=C(Nc1nnc(-c2ccc(Oc3ccc([N+](=O)[O-])cc3)cc2)s1)c1ccccc1[N+](=O)[O-]
inhibition [1]: 13% | inhibition [2]: 85% | IC50 [3]: Not Active | IC50 [4]: Not Active | IC50 [5]: Not Active | IC50 [6]: Not Active | IC50 [7]: 9.17 µM

COc1ccc(C(=O)Nc2nnc(-c3ccc(Oc4ccc([N+](=O)[O-])cc4[N+](=O)[O-])cc3)s2)cc1
inhibition [1]: 28.9% | inhibition [2]: 92.9% | IC50 [3]: Not Active | IC50 [4]: Not Active | IC50 [5]: Not Active | IC50 [6]: Not Active | IC50 [7]: 7.6 µM

O=C(Nc1nnc(-c2ccc(Oc3ccc([N+](=O)[O-])cc3)cc2)s1)c1cccc(F)c1
inhibition [1]: 81.7% | inhibition [2]: 37.1% | IC50 [8]: 10.5 µM | IC50 [3]: Not Active | IC50 [4]: Not Active | IC50 [5]: Not Active | IC50 [6]: Not Active

O=C(Cc1ccccc1)Nc1nnc(-c2ccc(Oc3ccc([N+](=O)[O-])cc3)cc2)s1
inhibition [1]: 43.6% | inhibition [2]: 54.9% | IC50 [3]: Not Active | IC50 [4]: Not Active | IC50 [5]: Not Active | IC50 [6]: Not Active | IC50 [7]: 12.6 µM

COc1ccccc1C(=O)Nc1nnc(-c2ccc(Oc3ccc([N+](=O)[O-])cc3[N+](=O)[O-])cc2)s1
inhibition [1]: 17.5% | inhibition [2]: 91.3% | IC50 [3]: Not Active | IC50 [4]: Not Active | IC50 [5]: Not Active | IC50 [6]: Not Active | IC50 [7]: 3.81 µM

O=C(Nc1nnc(-c2ccc(Oc3ccc([N+](=O)[O-])cc3[N+](=O)[O-])cc2)s1)c1ccc(Cl)cc1
inhibition [1]: 90.2% | inhibition [2]: 42.3% | IC50 [8]: 4.44 µM | IC50 [3]: Not Active | IC50 [4]: Not Active | IC50 [5]: Not Active | IC50 [6]: Not Active
